Reference: PubChem BioAssay (NCI)
“And” between values parts separate entries of the source, which are not always exact repeats. Equal entries are not always repeated.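 Method: 48-hour compound exposure of cells in 96-well plates, five concentrations, linear interpolation of endpoints. Abbreviation: GI50, concentration required for 50% inhibition of growth. TGI is the concentration that stops growth completely.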

Experiments:
Experiment in all cases: NCI anticancer screen, dose series, 48 h
UACC-257 melanoma = system: UACC-257 melanoma
MOLT-4 leukemia = system: MOLT-4 leukemia
NCI-H23 lung = system: NCI-H23 lung
NCI-H226 lung = system: NCI-H226 lung
NCI-H522 lung = system: NCI-H522 lung
COLO 205 colon = system: COLO 205 colon
SK-OV-3 ovarian = system: SK-OV-3 ovarian
CCRF-CEM leukemia = system: CCRF-CEM leukemia
RPMI-8226 leukemia = system: RPMI-8226 leukemia
LOX IMVI melanoma = system: LOX IMVI melanoma

| Structure (SMILES) | GI50 (UACC-257 melanoma) | TGI (UACC-257 melanoma) [µM] | GI50 (MOLT-4 leukemia) | TGI (MOLT-4 leukemia) | GI50 (NCI-H23 lung) | TGI (NCI-H23 lung) [µM] | GI50 (NCI-H226 lung) [µM] | TGI (NCI-H226 lung) [µM] | GI50 (NCI-H522 lung) [µM] | TGI (NCI-H522 lung) [µM] | GI50 (COLO 205 colon) [µM] | TGI (COLO 205 colon) [µM] | GI50 (SK-OV-3 ovarian) [µM] | TGI (SK-OV-3 ovarian) [µM] | GI50 (CCRF-CEM leukemia) | TGI (CCRF-CEM leukemia) | GI50 (RPMI-8226 leukemia) [µM] | TGI (RPMI-8226 leukemia) | GI50 (LOX IMVI melanoma) [µM] | TGI (LOX IMVI melanoma) |
| --- | --- | --- | --- | --- | --- | --- | --- | --- | --- | --- | --- | --- | --- | --- | --- | --- | --- | --- | --- | --- |
| Cc1nc(N2CCC3(CC2)CO[C@@H](C)[C@H]3N)c(CO)nc1Sc1ccnc(N)c1Cl | > 90.4 µM | > 100 | > 100 µM | > 100 µM | 0.329 µM | > 100 | 2.14 | > 100 | 1.32 | > 100 | > 73.4 | > 100 | 0.789 | > 100 | > 91.3 µM | > 100 µM | 49.3 | > 100 µM | 72.4 | > 100 µM |
| O=C(CNc1ccccc1[N+](=O)[O-])Nn1c(-c2ccccc2)nc2ccccc2c1=O | – | > 10 | – | 49.8 µM | – | 76.5 | – | 93 | – | > 10 | – | 53.9 | – | > 100 | – | 43.6 µM | – | 89.5 µM | – | 24.7 µM |
| O=C1C(Cl)C(c2ccccc2O)N1n1cnc2ccccc2c1=O (stereo not given) | – | > 100 | – | > 100 µM | – | > 100 | – | > 100 | – | 93.8 | – | > 100 | – | > 100 | – | > 100 µM | – | > 100 µM | – | > 100 µM |
| O=S1Nc2c(Cl)cc(Cl)c3c(Cl)cc(Cl)c(c23)N1 | – | > 100 | – | > 100 µM | – | > 100 | – | 69.5 | – | 89.8 | – | > 100 | – | > 100 | – | > 100 µM | – | > 100 µM | – | > 100 µM |
| COc1ccccc1CNCCCN1C(=O)c2ccc3c4c(ccc(c24)C1=O)C(=O)N(CCCCNCCCN)C3=O | 0.698 µM | 2.08 | 0.389 µM | 1.7 µM | 0.594 µM | 1.63 | 2.26 | 9.24 | 1.46 | 3.25 | 0.524 | 1.08 | 3.74 | 15.9 | 0.752 µM | 5.17 µM | 1.91 | 10.7 µM | 0.654 | 1.69 µM |
| NC(=O)c1cccc(Nc2nccc(Nc3cccc4[nH]ncc34)n2)c1 | > 19.2 µM | > 25 | 12.8 µM | > 25 µM | 17.1 µM | > 25 | 5.52 | > 20.1 | 8.85 | > 25 | 5.5 | 17.1 | 8.45 | > 25 | 9.14 µM | > 25 µM | > 25 | > 25 µM | 6.07 | > 18.4 µM |
| Cc1cccc(C)c1NC(=O)Nc1ccc(S(N)(=O)=O)cc1 | – | > 100 | – | > 100 µM | – | > 100 | – | > 100 | – | > 100 | – | > 100 | – | > 100 | – | > 100 µM | – | > 100 µM | – | > 100 µM |
| COc1ccc(-c2c3c(n(C4OC(COC(C)=O)C(OC(C)=O)C(OC(C)=O)C4OC(C)=O)c(=S)c2C#N)CC(C)(C)CC3=O)cc1 (stereo not given) | 27.9 µM and > 100 µM | > 100 | – | 57.1 µM and > 100 µM | 39.9 µM and > 100 µM | > 100 | – | > 100 | – | > 100 | – | > 100 | – | > 100 | 21.5 µM and 71.7 µM | 57.2 µM and > 100 µM | – | 72.1 µM and > 100 µM | – | 97.5 µM and 77.2 µM |
| COC(C(=O)NCCCCNC(=O)C(OC)c1ccccc1)c1ccccc1 (stereo not given) | – | > 100 | – | > 100 µM | – | > 100 | – | > 100 | – | > 100 | – | > 100 | – | > 100 | – | > 100 µM | – | > 100 µM | – | > 100 µM |
| COc1nc(N)nc2c1ncn2C1OC(CO)C(O)C1O (stereo not given) | – | > 5000 | 5.7 µM and 19.5 µM | 2260 µM | 909 µM | > 5000 | > 5000 | > 5000 | > 5000 | > 5000 | 520 | 2250 | 2430 | > 5000 | 8.46 µM | – | 3580 | > 5000 µM | 3540 | > 5000 µM |
| CNC(=O)Cc1nc(-c2cccc(NS(=O)(=O)c3c(F)cccc3F)c2F)c(-c2ccnc(Nc3ccccc3)n2)s1 | 0.0142 µM | – | 12.5 µM | > 50 µM | 4.42 µM | > 50 | 8.73 | > 50 | 7.22 | > 50 | 0.0188 | > 30.2 | 0.558 | 27.9 | 11.3 µM | > 50 µM | 14.3 | > 47.9 µM | 0.0917 | 5.38 µM |
| CC(C)(C)CC(C)(C)NCc1cc(C(C)(C)C)cc(CNC(C)(C)CC(C)(C)C)c1O | 2.21 µM | 6.52 | 2.93 µM | 9.34 µM | 2.42 µM | 7.8 | 2.25 | 8.89 | 1.78 | 3.66 | 1.41 | 2.8 | 2.52 | 8.45 | 4.18 µM | 34.9 µM | 2.46 | 6.49 µM | 1.6 | 3.1 µM |
| COC(=O)C1[C@H](c2cc(OC)c(OC)c(OC)c2)OC(=O)C1(C(=O)OC)C(=O)c1ccc2c(c1)OCO2 (stereo not given in full) | – | > 100 | – | > 100 µM | – | > 100 | – | > 100 | – | > 100 | – | > 100 | – | > 100 | – | > 100 µM | – | > 100 µM | – | > 100 µM |
| CN1C(=O)N[C@H]2[C@@H]3NC(=O)c4ccc(Br)n4[C@@H]3C[C@]21O | 0.108 µM | 1.52 | 0.0704 µM | 0.351 µM | 0.0968 µM | 1.42 | 0.212 | 2.64 | 0.0384 | 0.31 | 0.0832 | 1.18 | 1.37 | 5.5 | 0.0252 µM | 0.327 µM | 0.0831 | 0.417 µM | 0.369 | 3.37 µM |
| Cc1cc(C)c(NC(=S)NC(=O)c2ccccc2)cc1C | – | > 100 | – | > 100 µM | – | > 100 | – | > 100 | – | > 100 | – | > 100 | – | > 100 | – | > 100 µM | – | > 100 µM | – | > 100 µM |
